Like-named read-outs stand apart in the source and are kept apart here.
Key:
[1] = Metabolic stability test in pooled human liver microsomes; type: in vitro ADME; conditions: human liver microsomes 0.5 mg protein/mL, 1 mmol/L NADPH, 37° C., 30 minutes
Method in brief: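 Remaining-rate readout: parent compound left after 30 min versus 0 min (set as 100%), measured by LC/MS/MS or SPE/MS. Oxidative reaction ran at 37° C. with 1 mmol/L NADPH, 0.5 mg protein/mL pooled human microsomes, 50 mmol/L Tris-HCl pH 7.4 buffer.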

[2] = test system: Mycobacterium avium ATCC700898; test: Determination of IC85 against M. avium (resazurin fluorescence); type: cell-based
[3] = Mycobacterium avium, ATCC700898, M. avium ATCC700898, CAMHB medium, 37° C., 3 days incubation then resazurin, fluorescence one day later, read-out: IC85

SMILES | MS_h_% (remaining amount of compound after reaction, 0 minute = 100%) [1] [%] | IC85 [2, 3] [nM] | IC85 ([2]; Mycobacterium avium, ATCC700898) [nM] | IC85 ([2]; M. avium ATCC700898, CAMHB medium, 37° C., 3 days incubation then resazurin, fluorescence one day later) [nM]
Cc1ccc2nc(C)c(C(=O)NCc3ccc(N4CCN(c5ccc(OC(F)(F)F)cc5)[C@@H](C)C4)c(F)c3)n2c1 [Compound I-1-25] | 72 | 2.2 | – | –
CCc1nc2cc(F)ccn2c1C(=O)NCc1ccc(N2CCN(c3ccc(OCC(F)(F)F)nc3)[C@@H](CC)C2)c(F)c1.Cl [Compound I-2-3] | 90.3 | 17 | – | –
COc1ccn2nc(C)c(C(=O)NCc3cc(F)c(N4CCC(c5ccc(OC(F)(F)F)cc5)CC4)c(F)c3)c2c1.Cl [Compound I-1-133] | 81 | 19 | – | –
CCc1nc2cc(F)ccn2c1C(=O)NCc1ccc(N2CCC(c3ccc(OC(F)(F)F)cc3)CC2)c(Cl)c1.Cl [Compound I-1-127] | 93 | 7.7 | – | –
Cc1cn2c(C(=O)NCc3ccc(N4CC5(CCN(c6ccc(C(F)(F)F)cc6)CC5)C4)c(F)c3)c(C)nc2s1 [Compound I-3-43] | 64.1 | 150 | – | –
CCc1nc2ccc(C#N)cn2c1C(=O)NCc1ccc(N2CCN(c3ccc(OC(F)(F)F)cc3)[C@@H](C)C2)c(F)c1 [Compound I-1-36] | 79 | 110 | – | –
CCc1nc2cc(F)ccn2c1C(=O)NCc1ccc(N2CCN(c3ccc(OCC(F)(F)F)nc3)[C@@H](C)C2)c(F)c1.Cl [Compound I-1-116] | 87 | 11 | – | –
Cc1ccn2c(C(=O)NCc3ccc(N4CCN(c5ccc(OC(F)(F)F)cc5)[C@@H](C)C4)c(C(F)(F)F)c3)c(C)nc2c1 [Compound I-2-15] | 59.2 | 250 | – | –
Cc1nc2ccc(F)cn2c1C(=O)NCc1ccc(N2CC(c3ccc(OC(F)(F)F)cc3)C2)c(F)c1 [Compound I-2-8] | 74.9 | 130 | – | –
Cc1ccn2c(C(=O)NCc3ccc4oc(-c5ccc(OC(F)(F)F)cc5)nc4c3)c(C)nc2c1.Cl [Compound I-3-17] | 81.1 | 860 | – | –
Cc1ccc2nc(C)c(C(=O)NCc3ccc(-c4ccc(C(F)(F)F)cc4)cc3)n2c1 [Compound I-3-33] | 72.6 | 2.2 | – | –
CCc1nc2ccc(Cl)cn2c1C(=O)NCc1ccc(N2CCN(c3ccc(OC(F)(F)F)cc3F)[C@@H](C)C2)c(F)c1.Cl [Compound I-1-98] | 76 | 8.8 | – | –
Cc1ccn2c(C(=O)NCc3ccc(N4CCN(c5ccc(OC(F)(F)F)cc5)CC4)c(F)c3)c(C)nc2c1 [Compound I-2-12] | 71.4 | 23 | – | –
[2H]c1c(C([2H])([2H])[2H])c([2H])n2c(C(=O)NCc3ccc(Oc4cccc(C(F)(F)F)c4)cc3)c(C)nc2c1[2H] [Compound I-3-15] | 82.4 | 230 | – | –
Cc1ccn2c(C(=O)NCc3ccc(N4CCC(c5ccc(OC(F)(F)F)cc5)CC4)c(Cl)c3)c(C)nc2c1.Cl [Compound I-1-82] | 98 | 500 | – | –
Cc1ccn2nc(C(F)(F)F)c(C(=O)NCc3ccc(N4CCN(c5ccc(OC(F)(F)F)cc5)[C@@H](C)C4)c(F)c3)c2c1.Cl [Compound I-1-126] | 77 | 270 | – | –
CCc1nc2cc(F)ccn2c1C(=O)NCc1ccc(N2CCC(c3ccc(OC(F)(F)F)cc3)CC2)c(F)c1.Cl [Compound I-1-68] | 91 | 13 | – | –
CCc1nc2cc(F)ccn2c1C(=O)NCc1ccc(N2CCN(c3ccc(OC(F)(F)F)cc3)[C@@H](CC)C2)c(F)c1.Cl [Compound I-2-4] | 90.1 | 6.5 | – | –
Cc1nc2ccc(F)cn2c1C(=O)NCc1ccc(N2CCN(c3ccc(OC(F)(F)F)cc3)C(C)(C)C2)c(F)c1 [Compound I-1-33] | 85 | 68 | – | –
Cc1ccn2c(C(=O)NCc3ccc(C4CCN(c5ccc(OC(F)(F)F)cc5)CC4)c(F)c3)c(C(F)(F)F)nc2c1 [Compound I-1-15] | 71 | 57 | – | –
COc1ccn2nc(C)c(C(=O)NCc3ccc(N4CCC(c5ccc(OC(F)(F)F)cc5)CC4)c(F)c3)c2c1.Cl [Compound I-1-123] | 77 | 14 | – | –
CCOc1ccc(N2CCC(c3ccc(CNC(=O)c4c(CC)nc5ccc(Cl)cn45)cc3F)CC2)cc1.Cl [Compound I-1-73] | 90 | 19 | – | –

SMILES | MS_h_% (remaining amount of compound after reaction, 0 minute = 100%) [1] [%] | IC85 [2, 3] [nM] | IC85 ([2]; Mycobacterium avium, ATCC700898) [nM] | IC85 ([2]; M. avium ATCC700898, CAMHB medium, 37° C., 3 days incubation then resazurin, fluorescence one day later) [nM]
Cc1ccn2c(C(=O)NCc3ccc(C4CCN(c5ccc(OC(F)(F)F)cc5)CC4)c(F)c3)c(C)nc2c1 [Compound I-1-1] | 75 | 17 | – | –
Cc1nc2ccc(Cl)cn2c1C(=O)NCc1cc(F)c2c(c1)CCN(C1CC=C(OC(F)(F)F)CC1)C2.Cl (stereo not shown) [Compound I-3-24] | 77.5 | 130 | – | –
CCc1nc2ccc(Cl)cn2c1C(=O)NCc1ccc(-n2cc3c(n2)CN(c2ccc(OC(F)(F)F)cc2)C3)c(F)c1.Cc1ccc(S(=O)(=O)O)cc1 [Compound I-3-45] | 63.2 | – | 4.6 | –
Cc1nc2cc(Cl)ccn2c1C(=O)NCc1ccc(N2CC=C(c3ccc(OC(F)(F)F)cc3)CC2)c(F)c1.Cl [Compound I-1-60] | 72 | 11 | – | –
CCOc1ccc(N2CCN(c3ccc(CNC(=O)c4c(CC)nc5ccc(Cl)cn45)cc3F)C[C@@H]2C)cc1 [Compound I-1-44] | 69 | 11 | – | –
CCc1nc2cc(Cl)ccn2c1C(=O)NCc1ccc(N2CCN(c3ccc(OC(F)(F)F)cc3)[C@H](C)C2)c(F)c1.Cl [Compound I-1-83] | 85 | 620 | – | –
CCc1nc2cc(F)ccn2c1C(=O)NCc1ccc(C2CCN(c3ccc(C(F)(F)F)cc3)CC2)cc1F.Cl [Compound I-1-150] | 65 | 2.4 | – | –
CCc1nc2ccc(Cl)cn2c1C(=O)NCc1ccc(N2CCC(c3ccc(OC(F)(F)F)cc3)CC2)c(Cl)c1.Cl [Compound I-1-80] | 74 | 60 | – | –
Cc1nn2ccc(F)cc2c1C(=O)NCc1ccc(N2CCN(c3ccc(OC(F)(F)F)cc3)[C@@H](C)C2)c(F)c1.Cl [Compound I-1-152] | 87 | 110 | – | –
CCc1nc2cc(F)ccn2c1C(=O)NCc1ccc(N2CCN(c3ccc(OC4CC4)cc3)[C@@H](C)C2)c(F)c1.Cl [Compound I-1-110] | 80 | 9.3 | – | –
CCc1nc2ccc(Cl)cn2c1C(=O)NCc1cc(F)c(N2CCN(c3ccc(OC(F)(F)F)cc3)[C@@H](C)C2)cc1F.Cl [Compound I-1-94] | 67 | 14 | – | –
CCc1nc2cc(F)ccn2c1C(=O)NCc1cc(F)c(N2CCN(c3ccc(OC(F)(F)F)cc3)[C@@H](C)C2)cc1F.Cl [Compound I-1-97] | 86 | 7.2 | – | –
CCc1nc2ccc(Cl)cn2c1C(=O)NCc1ccc(N2CCN(c3ccc(OC(F)(F)F)cc3)[C@@H](C)C2)c(F)c1 [Compound I-1-3] | 66 | 3 | – | –
C[C@H]1CN(c2ccc(CNC(=O)c3c(C(F)(F)F)nc4ccc(Cl)cn34)cc2F)CCN1c1ccc(OC(F)(F)F)cc1 [Compound I-1-29] | 89 | – | – | 2.7
Cc1ccn2c(C(=O)NCc3ccc(C4CCN(C5CN(CC(F)(F)F)C5)CC4)c(F)c3)c(C)nc2c1 [Compound I-3-34] | 71.9 | 610 | – | –
CCCCOc1ccc(N2CCC(c3ccc(CNC(=O)c4c(CC)nc5cc(F)ccn45)c(F)c3)CC2)cc1.Cl [Compound I-1-151] | 88 | 10 | – | –
Cc1ccc2nc(C)c(C(=O)NCc3ccc(C4CCN(c5ccc(OC(F)(F)F)cc5)CC4)c(F)c3)n2c1 [Compound I-1-16] | 67 | 1.6 | – | –
CCc1nc2ccc(Cl)cn2c1C(=O)NCc1ccc(-n2ccc(C(F)(F)F)n2)cc1 [Compound I-3-25] | 77 | 140 | – | –
Cc1nc2ccc(F)cn2c1C(=O)NCc1ccc(N2CCC(c3ccc(OC(F)(F)F)cc3)CC2)c(F)c1.Cl [Compound I-1-64] | 94 | 79 | – | –
Cc1ccn2c(C(=O)NCc3ccc(C4CCN(c5cccc(OC(F)(F)F)c5)CC4)c(F)c3)c(C)nc2c1 [Compound I-1-19] | 87 | 130 | – | –
CCc1nc2ccc(Cl)cn2c1C(=O)NCc1ccc(N2CCN(c3ncc(C(F)(F)F)cc3F)[C@@H](C)C2)c(F)c1.Cl [Compound I-1-99] | 77 | 35 | – | –
CCc1nc2cc(F)ccn2c1C(=O)NCc1ccc(N2CCN(c3ccc(OC(F)(F)F)cc3)[C@H]3CCCC[C@@H]32)c(F)c1.Cl [Compound I-1-124] | 63 | 870 | – | –
